Measured values as given in US8158851B2, “Transgenic high tryptophan plants” (Monsanto Technology LLC, priority 2002, dated 2012).
Read-outs that look alike come from different tables or passages of the source.

Columns and labels:
[1] = target: T1, Agrobacterium tumefaciens anthranilate synthase N52F mutant, SEQ ID NO: 62 (Agrobacterium fabrum, UniProt A9CI26, N52F); experiment: Anthranilate synthase assay, N52F mutant; format: biochemical; settings: 25° C.
T1 construct: no tag mentioned
From the text: (§1) Site directed mutagenesis was used to generate ten single amino acid substitutions six sites. The mutations were introduced into the Agrobacterium tumefaciens AS in pMON34705 using the QuikChange™ Site-Directed Mutagenesis Kit (Stratagene). The primers used for site directed mutagenesis were SEQ ID NOs: 9-42 (FIG. 7; F=forward, R=reverse). Each primer sequence is specific for alteration of the nucleic acid at a specific location in the sequence and thus changing the encoded codon to code for a new amino acid. For example, S51C designates a change from serine to cysteine at amino acid position 51 in the Agrobacterium tumefaciens AS peptide sequence.
(§2) Following mutagenesis the sequence of the entire gene was reconfirmed and the variants expressed and purified from E. coli as described below for the wild type enzyme. The resultant plasmids comprising mutant Agrobacterium tumefaciens AS are suitably cloned into a plasmid for overproduction of protein using the T7 expression system as described in Example 1.
(§3) Agrobacterium tumefaciens AS wild type and mutant enzymes were expressed in E. coli as described in Example 1. The purification of all the Agrobacterium tumefaciens AS enzymes, including wild type and mutants thereof, was performed at 4° C. The cells (approximate wet weight of 1 g) were suspended in 20 ml of purification buffer (50 mM potassium phosphate, pH 7.3, 10 mM MgCl2, 10 mM 2-mercaptoethanol, 10% glycerol) and lysed by ultrasonication (Branson sonifier Cell Disruptor, W185). Supernatant was collected after centrifugation of the homogenate at 20,000×g for 15 min. The supernatant was subjected to ammonium sulfate fractionation (30 to 65% saturation). The precipitate was collected after centrifugation at 20,000×g for 15 min and dissolved in 3 ml of the purification buffer and then loaded as a whole on an Econo-Pac 10DG desalting column, pre-equilibrated with the same buffer. Fractions containing the enzyme were detected by the developed assay and pooled. The pooled enzyme (4.3 mls) was loaded on a 10 ml DEAF Sephacel (Pharmacia Biotech) column (1.5×7.5 cm) equilibrated with the same buffer. […]
(§4) The standard assay for Agrobacterium tumefaciens AS was performed at 25° C. in an assay buffer containing 100 mM potassium phosphate, pH 7.0, 10 mM MgCl2, 1 mM dithiothreitol, 200 μM chorismate and 10 mM L-glutamine. […] The formation of anthranilate was directly monitored by the absorbance increase at 320 m for 3 minutes. Initial rate of reaction was calculated as unit absorbance increase per second based on the slope of the absorbance change over the reaction time. […] Kinetic parameters and IC50 of AS were calculated after fitting the data to a non-linear regression program (GraFit).

[2] = target: T2, Agrobacterium tumefaciens anthranilate synthase V48Y mutant, SEQ ID NO: 59 (Agrobacterium fabrum, UniProt A9CI26, V48Y); experiment: Anthranilate synthase assay, V48Y mutant; format: biochemical; settings: 25° C.
T2 construct: no tag mentioned
From the text: as §1, §2, §3, §4

[3] = target: T3, Agrobacterium tumefaciens anthranilate synthase S51C mutant, SEQ ID NO: 61 (Agrobacterium fabrum, UniProt A9CI26, S51C); experiment: Anthranilate synthase assay, S51C mutant; format: biochemical; settings: 25° C.
T3 construct: no tag mentioned
From the text: as §1, §2, §3, §4

[4] = target: T4, Agrobacterium tumefaciens anthranilate synthase (AgroAS), wild type, SEQ ID NO: 4 (Agrobacterium fabrum, UniProt A9CI26); experiment: Anthranilate synthase assay, anthranilate formation by absorbance at 320 nm; format: biochemical; settings: 25° C.
T4 construct: no tag mentioned
Experimental: Agrobacterium tumefaciens AS wild type and mutant enzymes were expressed in E. coli as described in Example 1. The purification of all the Agrobacterium tumefaciens AS enzymes, including wild type and mutants thereof, was performed at 4° C. The cells (approximate wet weight of 1 g) were suspended in 20 ml of purification buffer (50 mM potassium phosphate, pH 7.3, 10 mM MgCl2, 10 mM 2-mercaptoethanol, 10% glycerol) and lysed by ultrasonication (Branson sonifier Cell Disruptor, W185). Supernatant was collected after centrifugation of the homogenate at 20,000×g for 15 min. The supernatant was subjected to ammonium sulfate fractionation (30 to 65% saturation). The precipitate was collected after centrifugation at 20,000×g for 15 min and dissolved in 3 ml of the purification buffer and then loaded as a whole on an Econo-Pac 10DG desalting column, pre-equilibrated with the same buffer. Fractions containing the enzyme were detected by the developed assay and pooled. The pooled enzyme (4.3 mls) was loaded on a 10 ml DEAF Sephacel (Pharmacia Biotech) column (1.5×7.5 cm) equilibrated with the same buffer. The column was washed with 30 ml of the purification buffer and the enzyme was eluted with 30 ml of 50 mM NaCl in the same buffer. Fractions containing high AS activity were pooled and precipitated by 65% ammonium sulfate saturation and isolated and desalted as above. Fractions containing the enzyme were pooled and stored at −80° C.
The standard assay for Agrobacterium tumefaciens AS was performed at 25° C. in an assay buffer containing 100 mM potassium phosphate, pH 7.0, 10 mM MgCl2, 1 mM dithiothreitol, 200 μM chorismate and 10 mM L-glutamine. The reaction was started by adding 30 μl of enzyme to the reaction mixture and mixing. The formation of anthranilate was directly monitored by the absorbance increase at 320 m for 3 minutes. Initial rate of reaction was calculated as unit absorbance increase per second based on the slope of the absorbance change over the reaction time. Km for chorismate (Km^Cho) was determined in the total volume of 1 ml assay buffer containing 100 mM potassium phosphate, pH 7.0, 10 mM MgCl2, 1 mM dithiothreitol with 10 mM L-glutamine and varying the concentration of chorismate between 2.5-100 μM chorismate. The Km for glutamine (Km^Gln) was determined in the total volume of 1 ml assay buffer containing 100 mM potassium phosphate, pH 7.0, 10 mM MgCl2, 1 mM dithiothreitol with 200 μM chorismate and varying the concentration of L-glutamine between 0.1-2 mM L-glutamine. […] Kinetic parameters and IC50 of AS were calculated after fitting the data to a non-linear regression program (GraFit).

[5] = target: T5, Agrobacterium tumefaciens anthranilate synthase S50K mutant, SEQ ID NO: 69 (Agrobacterium fabrum, UniProt A9CI26, S50K); experiment: Anthranilate synthase assay, S50K mutant; format: biochemical; settings: 25° C.
T5 construct: no tag mentioned
From the text: as §1, §2, §3, §4

[6] = target: T6, Agrobacterium tumefaciens anthranilate synthase S51F mutant, SEQ ID NO: 60 (Agrobacterium fabrum, UniProt A9CI26, S51F); experiment: Anthranilate synthase assay, S51F mutant; format: biochemical; settings: 25° C.
T6 construct: no tag mentioned
From the text: as §1, §2, §3, §4

[7] = target: T7, Agrobacterium tumefaciens anthranilate synthase P293G mutant, SEQ ID NO: 64 (Agrobacterium fabrum, UniProt A9CI26, P293G); experiment: Anthranilate synthase assay, P293G mutant; format: biochemical; settings: 25° C.
T7 construct: no tag mentioned
From the text: as §1, §2, §3, §4

[8] = target: T8, Agrobacterium tumefaciens anthranilate synthase P293A mutant, SEQ ID NO: 63 (Agrobacterium fabrum, UniProt A9CI26, P293A); experiment: Anthranilate synthase assay, P293A mutant; format: biochemical; settings: 25° C.
T8 construct: no tag mentioned
From the text: as §1, §2, §3, §4

[9] = target: T9, Agrobacterium tumefaciens anthranilate synthase V48F mutant, SEQ ID NO: 58 (Agrobacterium fabrum, UniProt A9CI26, V48F); experiment: Anthranilate synthase assay, V48F mutant; format: biochemical; settings: 25° C.
T9 construct: no tag mentioned
From the text: as §1, §2, §3, §4

[10] = tested on: soy seed; experiment: Free amino acid analysis of soy seed (tryptophan content); format: in vivo, Glycine max; settings: R1 soy seeds expressing the mutant protein
Experimental: Amino Acid Extraction: About 50 mg of crushed soy seed (5 mg of Arabidopsis) material was placed in each centrifuge vial. One milliliter of 5% trichloroacetic acid was added to each sample (100 μl for Arabidopsis). The samples were vortexed, and allowed to sit, with agitation, at room temperature for 15 min. They were then microcentrifuged for 15 min at 14000 rpm. Some of the supernatant was then removed, placed in a HPLC vial and sealed. Samples were kept at 4° C. in the analysis queue.
Amino Acid Analysis: The reagents utilized for amino acid analysis included the OPA reagent (o-phthalaldehyde and 3-mercaptopropionic acid in borate buffer (Hewlett-Packard, PN 5061-3335)) where the borate buffer (0.4 N in water, pH 10.2). The analysis was performed using the Agilent 1100 series HPLC system as described in the Agilent Technical Publication, “Amino Acid Analysis Using Zorbax Eclipse-AAA Columns and the Agilent 1100 HPLC”, Mar. 17, 2000. First, 0.5 μl of the sample was derivatized with 2.5 μl of OPA reagent in 10 μl of borate buffer. Second, the derivative is injected onto a Eclipse XDB-C18 5 μm, 4.6×150 mm column using a flow rate of 1.2 ml/min. Amino acid concentrations were measured using fluorescence: excitation at 340 nm, emission at 450 nm. Elution was with a gradient of HPLC Buffers A and B according to Table A, where HPLC Buffer A was 40 mM Na2HPO4, pH=7.8 and HPLC Buffer B was 9:9:2::Methanol:Acetonitrile:Water.
Amino acid standards were prepared from the dry chemicals, using all amino acids of interest. Proline analysis required an additional derivatization step with 9-fluorenylmethyl-chloroformate (FMOC). Amino acid standards were also sometimes purchased in concentrations ranging from 0 to 100 μg/ml. Samples were reported in μg/g of seed powder.
Mature R1 seed is produced and analyzed for free amino acid content using fluorescence detection as described in Agilent Technologies Technical Bulletin REV14. Five seeds are chosen for single seed analysis from each event. […] The highest levels of tryptophan have a negative impact on germination.

[11] = pH 7.0, 10 mM L-glutamine, 2.5-100 μM chorismate, read-out: Km for chorismate (Km^Cho)
[12] = pH 7.0, 200 μM chorismate, 0.1-2 mM L-glutamine, read-out: Km for glutamine (Km^Gln)

T5 sequence (A9CI26 whole entry S50K): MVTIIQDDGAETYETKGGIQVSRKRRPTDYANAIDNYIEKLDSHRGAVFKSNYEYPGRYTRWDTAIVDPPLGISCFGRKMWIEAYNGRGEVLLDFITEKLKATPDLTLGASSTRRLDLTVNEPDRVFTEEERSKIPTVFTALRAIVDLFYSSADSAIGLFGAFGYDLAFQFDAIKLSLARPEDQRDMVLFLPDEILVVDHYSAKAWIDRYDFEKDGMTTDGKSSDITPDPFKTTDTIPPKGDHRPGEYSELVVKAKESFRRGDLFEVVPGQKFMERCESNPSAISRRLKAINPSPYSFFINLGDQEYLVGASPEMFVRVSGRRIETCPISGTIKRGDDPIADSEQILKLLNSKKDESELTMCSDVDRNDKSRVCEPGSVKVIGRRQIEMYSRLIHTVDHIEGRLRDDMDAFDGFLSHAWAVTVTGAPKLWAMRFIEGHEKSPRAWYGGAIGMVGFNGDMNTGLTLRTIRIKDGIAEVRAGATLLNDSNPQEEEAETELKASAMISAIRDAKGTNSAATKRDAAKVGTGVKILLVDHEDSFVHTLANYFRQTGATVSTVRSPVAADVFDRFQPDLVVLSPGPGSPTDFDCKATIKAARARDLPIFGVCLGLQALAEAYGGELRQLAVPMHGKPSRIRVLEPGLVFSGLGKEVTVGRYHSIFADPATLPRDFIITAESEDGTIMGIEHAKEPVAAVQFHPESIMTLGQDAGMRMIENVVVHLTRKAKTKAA
T6 sequence (A9CI26 whole entry S51F): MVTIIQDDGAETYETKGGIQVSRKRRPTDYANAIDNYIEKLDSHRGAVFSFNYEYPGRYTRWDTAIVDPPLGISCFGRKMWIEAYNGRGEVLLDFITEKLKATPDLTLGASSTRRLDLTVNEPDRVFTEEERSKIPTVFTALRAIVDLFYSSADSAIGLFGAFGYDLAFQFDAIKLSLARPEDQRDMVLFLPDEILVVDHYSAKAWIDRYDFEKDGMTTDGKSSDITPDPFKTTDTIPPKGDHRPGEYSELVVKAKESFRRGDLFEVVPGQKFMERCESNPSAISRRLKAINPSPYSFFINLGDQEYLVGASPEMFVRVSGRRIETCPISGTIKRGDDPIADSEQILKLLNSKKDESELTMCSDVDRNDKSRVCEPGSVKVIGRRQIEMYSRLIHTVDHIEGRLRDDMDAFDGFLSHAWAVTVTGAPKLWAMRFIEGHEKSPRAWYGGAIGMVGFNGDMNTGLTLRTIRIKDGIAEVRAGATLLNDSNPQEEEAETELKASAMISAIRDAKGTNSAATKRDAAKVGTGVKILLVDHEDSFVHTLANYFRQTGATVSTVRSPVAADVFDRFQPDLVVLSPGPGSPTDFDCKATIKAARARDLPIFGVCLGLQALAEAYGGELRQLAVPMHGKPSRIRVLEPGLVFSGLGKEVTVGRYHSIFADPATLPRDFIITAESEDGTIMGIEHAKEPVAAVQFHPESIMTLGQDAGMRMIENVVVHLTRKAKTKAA
T4 sequence (A9CI26 entry or part of it): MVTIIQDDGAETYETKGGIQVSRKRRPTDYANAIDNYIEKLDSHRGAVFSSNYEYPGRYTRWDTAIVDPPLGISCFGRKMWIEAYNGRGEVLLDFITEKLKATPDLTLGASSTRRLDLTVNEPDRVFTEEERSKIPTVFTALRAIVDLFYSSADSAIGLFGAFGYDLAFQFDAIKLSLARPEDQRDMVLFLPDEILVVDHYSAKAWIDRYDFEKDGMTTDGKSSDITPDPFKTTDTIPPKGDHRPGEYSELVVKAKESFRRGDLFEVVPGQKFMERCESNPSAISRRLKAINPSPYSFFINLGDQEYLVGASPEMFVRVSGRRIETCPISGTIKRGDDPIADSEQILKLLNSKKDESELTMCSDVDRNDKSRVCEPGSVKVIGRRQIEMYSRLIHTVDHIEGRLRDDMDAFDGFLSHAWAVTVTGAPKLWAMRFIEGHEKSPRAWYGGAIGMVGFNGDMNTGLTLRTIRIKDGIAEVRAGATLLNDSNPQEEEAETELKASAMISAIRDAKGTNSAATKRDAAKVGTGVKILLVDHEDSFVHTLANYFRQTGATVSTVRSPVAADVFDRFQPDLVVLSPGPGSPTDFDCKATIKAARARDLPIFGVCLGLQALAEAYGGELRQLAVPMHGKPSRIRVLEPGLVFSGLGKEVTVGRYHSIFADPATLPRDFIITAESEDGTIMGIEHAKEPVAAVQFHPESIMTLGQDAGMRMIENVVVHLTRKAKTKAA
T3 sequence (A9CI26 whole entry S51C): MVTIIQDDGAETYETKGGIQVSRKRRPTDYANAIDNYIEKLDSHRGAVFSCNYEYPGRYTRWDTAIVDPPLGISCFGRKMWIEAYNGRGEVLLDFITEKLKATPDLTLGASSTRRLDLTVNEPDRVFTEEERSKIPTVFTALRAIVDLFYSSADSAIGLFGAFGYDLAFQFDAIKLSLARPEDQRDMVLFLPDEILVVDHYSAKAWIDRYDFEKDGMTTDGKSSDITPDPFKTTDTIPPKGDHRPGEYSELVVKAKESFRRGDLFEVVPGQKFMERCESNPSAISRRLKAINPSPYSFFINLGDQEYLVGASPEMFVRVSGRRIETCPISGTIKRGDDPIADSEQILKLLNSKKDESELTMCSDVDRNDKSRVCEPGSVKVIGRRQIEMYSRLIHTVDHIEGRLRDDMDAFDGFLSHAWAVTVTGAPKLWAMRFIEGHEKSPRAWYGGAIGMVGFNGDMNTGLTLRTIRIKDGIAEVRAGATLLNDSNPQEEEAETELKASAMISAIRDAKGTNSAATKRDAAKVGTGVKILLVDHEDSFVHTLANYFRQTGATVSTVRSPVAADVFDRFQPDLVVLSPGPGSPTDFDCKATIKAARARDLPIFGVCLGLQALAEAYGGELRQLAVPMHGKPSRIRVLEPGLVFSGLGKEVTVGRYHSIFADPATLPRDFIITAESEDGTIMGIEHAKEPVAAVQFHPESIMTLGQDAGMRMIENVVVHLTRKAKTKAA
T2 sequence (A9CI26 whole entry V48Y): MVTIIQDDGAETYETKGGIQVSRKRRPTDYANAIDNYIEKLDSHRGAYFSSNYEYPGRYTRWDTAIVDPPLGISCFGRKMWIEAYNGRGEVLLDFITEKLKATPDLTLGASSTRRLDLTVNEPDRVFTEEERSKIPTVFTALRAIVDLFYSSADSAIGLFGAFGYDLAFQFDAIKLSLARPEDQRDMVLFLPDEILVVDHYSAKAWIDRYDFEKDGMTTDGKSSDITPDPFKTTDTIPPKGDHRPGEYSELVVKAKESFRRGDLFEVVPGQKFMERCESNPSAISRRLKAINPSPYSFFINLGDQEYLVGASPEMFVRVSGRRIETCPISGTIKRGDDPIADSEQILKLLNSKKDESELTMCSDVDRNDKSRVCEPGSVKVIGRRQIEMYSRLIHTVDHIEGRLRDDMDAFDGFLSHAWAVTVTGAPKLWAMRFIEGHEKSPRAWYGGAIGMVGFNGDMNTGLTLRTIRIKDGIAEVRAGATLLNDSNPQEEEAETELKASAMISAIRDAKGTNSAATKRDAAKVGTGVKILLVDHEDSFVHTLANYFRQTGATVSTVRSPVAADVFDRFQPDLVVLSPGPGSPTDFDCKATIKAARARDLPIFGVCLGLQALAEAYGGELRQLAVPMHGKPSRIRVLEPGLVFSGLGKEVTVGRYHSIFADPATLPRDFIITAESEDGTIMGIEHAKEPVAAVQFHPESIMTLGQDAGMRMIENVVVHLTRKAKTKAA
T1 sequence (A9CI26 whole entry N52F): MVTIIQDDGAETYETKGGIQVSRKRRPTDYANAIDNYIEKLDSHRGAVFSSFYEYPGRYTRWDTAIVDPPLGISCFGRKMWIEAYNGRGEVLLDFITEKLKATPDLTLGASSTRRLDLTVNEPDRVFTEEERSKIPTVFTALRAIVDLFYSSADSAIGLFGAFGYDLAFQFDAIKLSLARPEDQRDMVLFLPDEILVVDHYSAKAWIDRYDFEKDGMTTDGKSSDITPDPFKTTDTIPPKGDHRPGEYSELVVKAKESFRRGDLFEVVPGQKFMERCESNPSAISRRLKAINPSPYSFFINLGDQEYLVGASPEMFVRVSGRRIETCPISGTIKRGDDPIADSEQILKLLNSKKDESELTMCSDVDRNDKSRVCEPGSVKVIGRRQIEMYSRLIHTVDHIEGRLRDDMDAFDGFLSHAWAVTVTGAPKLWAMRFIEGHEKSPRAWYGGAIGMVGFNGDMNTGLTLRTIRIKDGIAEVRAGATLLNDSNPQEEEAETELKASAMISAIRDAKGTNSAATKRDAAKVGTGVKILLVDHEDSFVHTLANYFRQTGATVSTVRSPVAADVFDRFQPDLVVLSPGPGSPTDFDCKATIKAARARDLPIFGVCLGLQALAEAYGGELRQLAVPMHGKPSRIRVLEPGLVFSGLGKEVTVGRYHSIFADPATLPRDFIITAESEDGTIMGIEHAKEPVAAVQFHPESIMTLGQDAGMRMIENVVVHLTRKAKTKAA

Molecule: C=C(O[C@@H]1C=C(C(=O)O)C=C[C@H]1O)C(=O)O [chorismate]
- kcat ([1]; pH 7.0): 0.21 s⁻¹
- kcat/Km^Cho ([1]; pH 7.0): 38200 M⁻¹ s⁻¹
- Km [1, 11]: 5.5 µM
- kcat ([2]; pH 7.0): 0.18 s⁻¹
- kcat/Km^Cho ([2]; pH 7.0): 42800 M⁻¹ s⁻¹
- Km [2, 11]: 4.2 µM
- kcat ([3]; pH 7.0): 0.15 s⁻¹
- kcat/Km^Cho ([3]; pH 7.0): 53600 M⁻¹ s⁻¹
- Km [3, 11]: 2.8 µM
- kcat ([4]; pH 7.0): 0.43 s⁻¹
- kcat/Km^Cho ([4]; pH 7.0): 53700 M⁻¹ s⁻¹
- Km [4, 11]: 8 µM
- kcat ([5]; pH 7.0): 0.13 s⁻¹
- kcat/Km^Cho ([5]; pH 7.0): 10000 M⁻¹ s⁻¹
- Km [5, 11]: 13 µM
- kcat ([6]; pH 7.0): 0.08 s⁻¹
- kcat/Km^Cho ([6]; pH 7.0): 8000 M⁻¹ s⁻¹
- Km [6, 11]: 10 µM
- kcat ([7]; pH 7.0): 0.48 s⁻¹
- kcat/Km^Cho ([7]; pH 7.0): 14500 M⁻¹ s⁻¹
- Km [7, 11]: 33 µM
- kcat ([8]; pH 7.0): 0.35 s⁻¹
- kcat/Km^Cho ([8]; pH 7.0): 14600 M⁻¹ s⁻¹
- Km [8, 11]: 24 µM
- kcat ([9]; pH 7.0): 0.24 s⁻¹
- kcat/Km^Cho ([9]; pH 7.0): 53300 M⁻¹ s⁻¹
- Km [9, 11]: 4.5 µM

Molecule: NC(=O)CC[C@H](N)C(=O)O [glutamine, L-glutamine]
- Km [1, 12]: 40 µM
- Km [2, 12]: 100 µM
- Km [3, 12]: 80 µM
- Km [4, 12]: 110 µM
- Km [5, 12]: 10 µM
- Km [6, 12]: 60 µM
- Km [7, 12]: 70 µM
- Km [8, 12]: 160 µM
- Km [9, 12]: 80 µM

B1: V48F (protein)
chain: MVTIIQDDGAETYETKGGIQVSRKRRPTDYANAIDNYIEKLDSHRGAFFSSNYEYPGRYTRWDTAIVDPPLGISCFGRKMWIEAYNGRGEVLLDFITEKLKATPDLTLGASSTRRLDLTVNEPDRVFTEEERSKIPTVFTALRAIVDLFYSSADSAIGLFGAFGYDLAFQFDAIKLSLARPEDQRDMVLFLPDEILVVDHYSAKAWIDRYDFEKDGMTTDGKSSDITPDPFKTTDTIPPKGDHRPGEYSELVVKAKESFRRGDLFEVVPGQKFMERCESNPSAISRRLKAINPSPYSFFINLGDQEYLVGASPEMFVRVSGRRIETCPISGTIKRGDDPIADSEQILKLLNSKKDESELTMCSDVDRNDKSRVCEPGSVKVIGRRQIEMYSRLIHTVDHIEGRLRDDMDAFDGFLSHAWAVTVTGAPKLWAMRFIEGHEKSPRAWYGGAIGMVGFNGDMNTGLTLRTIRIKDGIAEVRAGATLLNDSNPQEEEAETELKASAMISAIRDAKGTNSAATKRDAAKVGTGVKILLVDHEDSFVHTLANYFRQTGATVSTVRSPVAADVFDRFQPDLVVLSPGPGSPTDFDCKATIKAARARDLPIFGVCLGLQALAEAYGGELRQLAVPMHGKPSRIRVLEPGLVFSGLGKEVTVGRYHSIFADPATLPRDFIITAESEDGTIMGIEHAKEPVAAVQFHPESIMTLGQDAGMRMIENVVVHLTRKAKTKAA
modifications: An A. tumefaciens mutant.
- amounts of tryptophan [10]: very high amounts of tryptophan
